Measured values as given in patent publication US12180202B1, “2-[(1,3-benzothiazol-2-yl)imino]-5,5-diphenylimidazolidin-4-one as an antimicrobial compound” (KING FAISAL UNIVERSITY, priority 2023, dated 2024).

Experiments:
Assay type in all cases: cell-based
[1] = tested on: different microbes; assay: antimicrobial activity screening, overall statement; settings: against different microbes (bacteria and fungi of Tables 1 and 2)
Experimental: (§1) The agar plate disc-diffusion method was applied. Sterilized filter papers (6 mm in diameter) were wetted with 10 μL of a solution of 2-[(1,3-benzothiazol-2-yl)imino]-5,5-diphenylimidazolidin-4-one (3) to be tested, containing 10 mg/mL in DMSO, and the discs were allowed to air dry. The discs were then placed onto the surface of agar plates (nutrient agar for bacteria and Sabouraud's dextrose agar for fungi) seeded with the test organism. Each plate contained 15 mL of the agar medium, previously seeded with 0.2 mL of the broth culture of each organism pregrown for 18 hours. The plates were incubated at 37° C. for 48 h, and 72 h for fungi. The inhibition zones were measured in mm. Discs impregnated with DMSO were used as a control, and its inhibition zone was subtracted from the tested compound actual inhibition zone.

[2] = tested on: Aspergillus flavus; assay: agar plate disc-diffusion, antifungal activity; settings: Sabouraud's dextrose agar, 72 h
Experimental: as §1, with “Sterilized filter papers (6 mm in diameter) were wetted with 10 μL of a solution of 2-[(1,3-benzothiazol-2-yl)imino]-5,5-diphenylimidazolidin-4-one (3) to be tested, containing 10 mg/mL in DMSO, and the discs were allowed to air dry.” left out

[3] = tested on: Chrysosporium keratinophilum; assay: agar plate disc-diffusion, antifungal activity; settings: Sabouraud's dextrose agar, 72 h
Experimental: as §1, with “Sterilized filter papers (6 mm in diameter) were wetted with 10 μL of a solution of 2-[(1,3-benzothiazol-2-yl)imino]-5,5-diphenylimidazolidin-4-one (3) to be tested, containing 10 mg/mL in DMSO, and the discs were allowed to air dry.” left out

[4] = tested on: Pseudomonas aeruginosa; assay: agar plate disc-diffusion, antibacterial activity; settings: nutrient agar, 37° C., 48 h
Experimental: as §1, with “Sterilized filter papers (6 mm in diameter) were wetted with 10 μL of a solution of 2-[(1,3-benzothiazol-2-yl)imino]-5,5-diphenylimidazolidin-4-one (3) to be tested, containing 10 mg/mL in DMSO, and the discs were allowed to air dry.” left out

[5] = tested on: Bacillus cereus; assay: agar plate disc-diffusion, antibacterial activity; settings: nutrient agar, 37° C., 48 h
Experimental: as §1, with “Sterilized filter papers (6 mm in diameter) were wetted with 10 μL of a solution of 2-[(1,3-benzothiazol-2-yl)imino]-5,5-diphenylimidazolidin-4-one (3) to be tested, containing 10 mg/mL in DMSO, and the discs were allowed to air dry.” left out

[6] = tested on: Escherichia coli; assay: agar plate disc-diffusion, antibacterial activity; settings: nutrient agar, 37° C., 48 h
Experimental: as §1, with “Sterilized filter papers (6 mm in diameter) were wetted with 10 μL of a solution of 2-[(1,3-benzothiazol-2-yl)imino]-5,5-diphenylimidazolidin-4-one (3) to be tested, containing 10 mg/mL in DMSO, and the discs were allowed to air dry.” left out

[7] = tested on: Staphylococcus aureus; assay: agar plate disc-diffusion, antibacterial activity; settings: nutrient agar, 37° C., 48 h
Experimental: as §1, with “Sterilized filter papers (6 mm in diameter) were wetted with 10 μL of a solution of 2-[(1,3-benzothiazol-2-yl)imino]-5,5-diphenylimidazolidin-4-one (3) to be tested, containing 10 mg/mL in DMSO, and the discs were allowed to air dry.” left out

[8] = A = concentration of comp. = 10 mg/mL
[9] = B = concentration of comp. = 30,000 μL
[10] = C = concentration of comp. = 50,000 μL
[11] = A = concentration of comp. = 10,000 μL

Compound | antimicrobial activities [1] | inhibition zone [2, 8] | inhibition zone [2, 9] | inhibition zone [2, 10] | inhibition zone [3, 11] | inhibition zone [3, 9] | inhibition zone [3, 10] | inhibition zone [4, 11] | inhibition zone [4, 9] | inhibition zone [4, 10] | inhibition zone [5, 11] | inhibition zone [5, 9] | inhibition zone [5, 10] | inhibition zone ([6]; A =) | inhibition zone [6, 9] | inhibition zone [6, 10] | inhibition zone [7, 11] | inhibition zone [7, 9] | inhibition zone [7, 10]
O=C1N/C(=N/c2nc3ccccc3s2)NC1(c1ccccc1)c1ccccc1 [Compound 3, 2-[(1,3-benzothiazol-2-yl)imino]-5,5-diphenylimidazolidin-4-one] | excellent antimicrobial activities | 21 mm | 25 mm | 31 mm | 26 mm | 29 mm | 45 mm | 24 mm | 28 mm | 45 mm | 20 mm | 23 mm | 35 mm | 26 mm | 34 mm | 50 mm | 19 mm | 23 mm | 35 mm
O=C(O)c1cn(C2CC2)c2cc(N3CCNCC3)c(F)cc2c1=O [Cip., ciprofloxacin, reference compound] | – | 29 mm | 30 mm | 42 mm | 29 mm | 30 mm | 53 mm | 29 mm | 30 mm | 53 mm | 29 mm | 30 mm | 42 mm | 30 mm | 39 mm | 60 mm | 43 mm | 44 mm | 53 mm
